Literature values, collected in US20030139355A1, “Medicine for orthopaedic surgical application and a treating method using thereof” (priority 2001, published 2003).

Legend:
[1] = tested on: selectins; settings: in vitro; J. Biol. Chem. 1994
[2] = tested on: ischemia reperfusion disorder in liver; settings: literature reports

CC1(C)[C@@H](O[C@H]2O[C@H](C(=O)O)[C@@H](O)[C@H](O)[C@H]2O[C@@H]2O[C@H](C(=O)O)[C@@H](O)[C@H](O)[C@H]2O)CC[C@]2(C)[C@H]3C(=O)C=C4[C@@H]5C[C@@](C)(C(=O)O)CC[C@]5(C)CC[C@@]4(C)[C@]3(C)CC[C@@H]12 [glycyrrhizin]
Binding between Sialyl-Lewis X and selectins [1]: prevents binding between Sialyl-Lewis X and selectins | Inhibitory effects on ischemia reperfusion disorder in liver [2]: effectively exhibits inhibitory effects
